Laboratory results as given in patent publication US7666890B2, “Synthesis and herbicidal activity of 1- (2-substituted benzo[d]thiazol-5-yl)-1H-1,2,4-triazol-5(4H)-one derivatives” (Huazhong Normal University, priority 2007, dated 2010).

Key:
Experiment in all cases: Test of herbicidal activities (greenhouse pot method)
Type in all cases: in vivo
Conditions in all cases: single dose 300 g ai./h, treated before/after germination, 15 days later, greenhouse pot
Amaranthus retroflexus = system: Amaranthus retroflexus
Description: (§1) Garden soil was collected from regions where no pesticide is used and mixed uniformly with mountain soil and organic humus soil at a volume ratio of 1:1:1.
(§2) Multiple flowerpots each having a diameter of 9.5 cm and a depth of 8 cm were filled with the soil mixture to 3/4 volume. After water was added to the soil and the soil was completely wet, seeds of three grass weeds and three broadleaf weeds were inserted into the flowerpots (10-15 seeds for each weed). After seeding, the seeds were covered with fine oil mixed with sand and having a thickness of 1-3 cm. After the soil absorbed enough water and became saturated, excess water at the bottom of the flowerpot was drained, and the seeds were placed in a greenhouse for growth.
(§3) The weeds were watered every day so as to keep relative humidity of the soil at approximately 80%, growing temperature of 15-30° C., and air humidity above 50%. As the grass weeds grew to a 2-leaf stage and the broadleaf weeds was in a leaf period, spraying operation […] was performed on the stems and leafs. Planting before germination was performed before spraying. Soil processing was performed before the seeds of the weeds emerged.
(§4) Six target weeds comprising three grass weeds: Echinochloa crusgalli, Digiatria sanguinalis, Setaria viridis, along with three broadleaf weeds: Brassica juncea, Amaranthus retroflexus, Chenopodium album were treated before/after germination using a so-called “greenhouse pot” method with a single dose. A treating dose was 300 g ai./h. The process was repeated three times, and a blank control was used.
(§5) A 3WPSHZ-500 type automatic spraying tower with a spraying area of 0.132 m^2, a spray volume of 10 mL, working pressure of 0.2 MPa, and a liquid volume of 40% of maximum was used. After treatment, the weeds were placed in a greenhouse at a temperature of 15-30° C. Reaction symptoms of the weeds were regularly observed, and 15 days later, five reaction levels were determined according to the following inhibition intervals: 90≦A≦100%; 80≦B<90%, 60≦C<80%; 50≦D<60%, E<50%.

Brassica juncea = system: Brassica juncea
Description: as §1, §2, §3, §4, §5

Chenopodium album = system: Chenopodium album
Description: as §1, §2, §3, §4, §5

Digiatria sanguinalis = system: Digiatria sanguinalis
Description: as §1, §2, §3, §4, §5

Echinochloa crusgalli = system: Echinochloa crusgalli
Description: as §1, §2, §3, §4, §5

Setaria viridis = system: Setaria viridis
Description: as §1, §2, §3, §4, §5

| Compound | Herbicidal activity Amaranthus retroflexus (inhibition level) (Amaranthus retroflexus) | Herbicidal activity Brassica juncea (inhibition level) (Brassica juncea) | Herbicidal activity Chenopodium album (inhibition level) (Chenopodium album) | Herbicidal activity Digiatria sanguinalis (inhibition level) (Digiatria sanguinalis) | Herbicidal activity Echinochloa crusgalli (inhibition level) (Echinochloa crusgalli) | Herbicidal activity Setaria viridis (inhibition level) (Setaria viridis) |
| --- | --- | --- | --- | --- | --- | --- |
| Cc1nn(-c2cc3nc(SCc4ccc(Cl)nc4)sc3cc2Cl)c(=O)n1C(F)F [Compound 1] | A (90 ≦ A ≦ 100%) | B (80 ≦ B < 90%) | C (60 ≦ C < 80%) | B (80 ≦ B < 90%) | B (80 ≦ B < 90%) | D (50 ≦ D < 60%) |
| CCCCCC[S+]([O-])c1nc2cc(-n3nc(C)n(C(F)F)c3=O)c(Cl)cc2s1 (stereo not drawn) [Compound 114] | A (90 ≦ A ≦ 100%) | A (90 ≦ A ≦ 100%) | A (90 ≦ A ≦ 100%) | A (90 ≦ A ≦ 100%) | B (80 ≦ B < 90%) | B (80 ≦ B < 90%) |
| CCCSc1nc2cc(-n3nc(C)n(C(F)F)c3=O)c(F)cc2s1 [Compound 92] | A (90 ≦ A ≦ 100%) | A (90 ≦ A ≦ 100%) | E (E < 50%) | B (80 ≦ B < 90%) | B (80 ≦ B < 90%) | C (60 ≦ C < 80%) |
| C=CCSc1nc2cc(-n3nc(C(F)(F)F)n(C(F)F)c3=O)c(F)cc2s1 [Compound 123] | A (90 ≦ A ≦ 100%) | D (50 ≦ D < 60%) | A (90 ≦ A ≦ 100%) | B (80 ≦ B < 90%) | D (50 ≦ D < 60%) | B (80 ≦ B < 90%) |
| CCCSc1nc2cc(-n3nc(C)n(C)c3=O)c(F)cc2s1 [Compound 33] | A (90 ≦ A ≦ 100%) | A (90 ≦ A ≦ 100%) | B (80 ≦ B < 90%) | A (90 ≦ A ≦ 100%) | B (80 ≦ B < 90%) | B (80 ≦ B < 90%) |
| Cc1nn(-c2cc3nc(SCc4cccc(Cl)c4)sc3cc2Cl)c(=O)n1C(F)F [Compound 4] | B (80 ≦ B < 90%) | E (E < 50%) | C (60 ≦ C < 80%) | E (E < 50%) | C (60 ≦ C < 80%) | C (60 ≦ C < 80%) |
| CCSc1nc2cc(-n3nc(C)n(C(F)F)c3=O)c(Cl)cc2s1 [Compound 86] | A (90 ≦ A ≦ 100%) | A (90 ≦ A ≦ 100%) | B (80 ≦ B < 90%) | A (90 ≦ A ≦ 100%) | A (90 ≦ A ≦ 100%) | A (90 ≦ A ≦ 100%) |
| CCCS(=O)(=O)c1nc2cc(-n3nc(C)n(C(F)F)c3=O)c(Cl)cc2s1 [Compound 72] | A (90 ≦ A ≦ 100%) | B (80 ≦ B < 90%) | B (80 ≦ B < 90%) | B (80 ≦ B < 90%) | A (90 ≦ A ≦ 100%) | C (60 ≦ C < 80%) |
| COc1cccc(CSc2nc3cc(-n4nc(C)n(C(F)F)c4=O)c(F)cc3s2)c1 [Compound 17] | A (90 ≦ A ≦ 100%) | A (90 ≦ A ≦ 100%) | B (80 ≦ B < 90%) | E (E < 50%) | C (60 ≦ C < 80%) | B (80 ≦ B < 90%) |
| CCCC[S+]([O-])c1nc2cc(-n3nc(C)n(C(F)F)c3=O)c(F)cc2s1 (stereo not drawn) [Compound 120] | C (60 ≦ C < 80%) | A (90 ≦ A ≦ 100%) | B (80 ≦ B < 90%) | B (80 ≦ B < 90%) | D (50 ≦ D < 60%) | B (80 ≦ B < 90%) |
| CCOC(=O)C(C)Sc1nc2cc(-n3nc(C)n(C(F)F)c3=O)c(Cl)cc2s1 (stereo not drawn) [Compound 95] | A (90 ≦ A ≦ 100%) | D (50 ≦ D < 60%) | B (80 ≦ B < 90%) | A (90 ≦ A ≦ 100%) | A (90 ≦ A ≦ 100%) | A (90 ≦ A ≦ 100%) |
| C=CCS(=O)(=O)c1nc2cc(-n3nc(C)n(C(F)F)c3=O)c(Br)cc2s1 [Compound 60] | A (90 ≦ A ≦ 100%) | A (90 ≦ A ≦ 100%) | B (80 ≦ B < 90%) | A (90 ≦ A ≦ 100%) | B (80 ≦ B < 90%) | C (60 ≦ C < 80%) |
| Cc1nn(-c2cc3nc([S+](C)[O-])sc3cc2Br)c(=O)n1C(F)F (stereo not drawn) [Compound 108] | B (80 ≦ B < 90%) | A (90 ≦ A ≦ 100%) | E (E < 50%) | B (80 ≦ B < 90%) | A (90 ≦ A ≦ 100%) | B (80 ≦ B < 90%) |
| Cc1nn(-c2cc3nc(SCc4ccc(Br)cc4)sc3cc2Br)c(=O)n1C(F)F [Compound 26] | B (80 ≦ B < 90%) | B (80 ≦ B < 90%) | A (90 ≦ A ≦ 100%) | C (60 ≦ C < 80%) | D (50 ≦ D < 60%) | C (60 ≦ C < 80%) |
| CCOC(=O)C(C)Sc1nc2cc(-n3nc(C(F)(F)F)n(C(F)F)c3=O)c(Cl)cc2s1 (stereo not drawn) [Compound 124] | B (80 ≦ B < 90%) | B (80 ≦ B < 90%) | B (80 ≦ B < 90%) | E (E < 50%) | D (50 ≦ D < 60%) | A (90 ≦ A ≦ 100%) |
| CSc1nc2cc(-n3nc(C)n(C(F)F)c3=O)c(Cl)cc2s1 [Compound 96] | B (80 ≦ B < 90%) | B (80 ≦ B < 90%) | B (80 ≦ B < 90%) | B (80 ≦ B < 90%) | B (80 ≦ B < 90%) | C (60 ≦ C < 80%) |
